In PubChem BioAssay AID1195 (EPA DSSTox, 2008):
Starred links: 1 amine or outer side, 2 acyl side, 3 side chain; linkers in the order of their positions; H or OH if unused. Positions of bridges follow the written chain, without caps; N, C: chain ends. Non-standard residues stand in square brackets, D forms with d. Residues, ends and D or L forms follow the SMILES beside them. Chains are numbered I, II in the order given. Actinocin(9to1) = Cc1c2oc3c(C)ccc(C(=O)[*:1])c3nc-2c(C(=O)[*:2])c(N)c1=O; NMeV = CN[C@H](C(=O)O)C(C)C; Sar = CNCC(=O)O

System: human maximum recommended daily dose, FDA database
Assay: DSSTox (FDAMDD) FDA Maximum (Recommended) Daily Dose Database
Settings: hits give low values
Method in brief: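 MRDD values come from clinical trials with daily oral dosing, usually for 3–12 months, for the average adult, in mg/day converted to mg/kg-bw/day assuming 60 kg. Antineoplastic mg/m2 doses are divided by 37. Activity score maps log10(1/MRDD mmol) onto 1–100.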

[1] = TherapeuticCategory: anti inflammatory
[2] = TherapeuticCategory: antibacterial
[3] = TherapeuticCategory: antidepressant
[4] = TherapeuticCategory: antineoplastic

## O=C(O)CCC(=O)c1ccc(C2CCCCC2)c(Cl)c1
[1]
  maximum recommended daily dose (mmol/kg-bw/day): 0.0678

## O=C(O)c1c(Cl)c(Cl)c(Cl)c(Cl)c1-c1c2cc(I)c(=O)c(I)c-2oc2c(I)c(O)c(I)cc12
TherapeuticCategory: diagnostic aid
  maximum recommended daily dose (mmol/kg-bw/day): 0.00197

## CCN(CC)Cc1cc(Nc2ccnc3cc(Cl)ccc23)ccc1O
TherapeuticCategory: antimalarial
  maximum recommended daily dose (mmol/kg-bw/day): 0.00936

## COc1ccc2[nH]cc(CCNC(C)=O)c2c1
TherapeuticCategory: antioxidant
  maximum recommended daily dose (mmol/kg-bw/day): 0.000359

## C=CCN1CC[C@]23c4c5ccc(O)c4O[C@H]2[C@@H](O)C=C[C@H]3[C@H]1C5
TherapeuticCategory: narcotic antagonist
  maximum recommended daily dose (mmol/kg-bw/day): 0.00214

## N[C@@H](CS)C(=O)O
TherapeuticCategory: none
  maximum recommended daily dose (mmol/kg-bw/day): 0.825

## O=C(O)COCCN1CCN(C(c2ccccc2)c2ccc(Cl)cc2)CC1 (centres undefined)
TherapeuticCategory: antihistaminic
  maximum recommended daily dose (mmol/kg-bw/day): 0.0432

## C[C@@H]1C/C=C/C=C/C=C/C=C/[C@H](O[C@@H]2O[C@H](C)[C@@H](O)[C@H](N)[C@@H]2O)C[C@@H]2O[C@](O)(C[C@@H](O)C[C@H]3O[C@@H]3/C=C/C(=O)O1)C[C@H](O)[C@H]2C(=O)O
[2]
  maximum recommended daily dose (mmol/kg-bw/day): 0.000413

## CC(C)(C)c1nnc(NS(=O)(=O)c2ccccc2)s1
TherapeuticCategory: antidiabetic
  maximum recommended daily dose (mmol/kg-bw/day): 0.042

## CCN1CCCC1CNC(=O)c1cc(S(=O)(=O)CC)ccc1OC (centres undefined)
[3]
  maximum recommended daily dose (mmol/kg-bw/day): 0.0564

## O=c1[nH]cc(F)c(=O)[nH]1
[4]
  maximum recommended daily dose (mmol/kg-bw/day): 0.0923

## C/C(=C(/CCO)SSCC1CCCO1)N(C=O)Cc1cnc(C)nc1N (centres undefined)
TherapeuticCategory: enzyme cofactor
  maximum recommended daily dose (mmol/kg-bw/day): 0.00419

## CN(C)CCOC1=Cc2ccccc2Sc2ccc(Cl)cc21
TherapeuticCategory: antipsychotic
  maximum recommended daily dose (mmol/kg-bw/day): 0.0226

## O=C1c2ccccc2C(=O)C1c1ccccc1
TherapeuticCategory: anticoagulant
  maximum recommended daily dose (mmol/kg-bw/day): 0.015

## CCCC(C)C1(CC)C(=O)NC(=O)NC1=O (centres undefined)
TherapeuticCategory: sedative, hypnotic
  maximum recommended daily dose (mmol/kg-bw/day): 0.0147

## CC(=O)OCC(=O)[C@@]1(O)[C@H](C)C[C@H]2[C@@H]3CCC4=CC(=O)C=C[C@]4(C)[C@@]3(F)C(O)C[C@@]21C (some centres undefined)
TherapeuticCategory: glucocorticoid, anti inflammatory
  maximum recommended daily dose (mmol/kg-bw/day): 0.000345

## C#CCN1C(=O)CN=C(c2ccccc2)c2cc(Cl)ccc21
TherapeuticCategory: anxiolytic
  maximum recommended daily dose (mmol/kg-bw/day): 0.00108

## CN[C@@H]1[C@@H](O)[C@@H](O[C@@H]2[C@@H](O)[C@H](O[C@H]3O[C@H](CN)CC[C@H]3N)[C@@H](N)C[C@H]2N)OC[C@]1(C)O
[2]
  maximum recommended daily dose (mmol/kg-bw/day): 0.00667

## CCCCC(=O)O[C@]1(C(=O)COC(C)=O)CC[C@H]2[C@@H]3CCC4=CC(=O)C=C[C@]4(C)[C@H]3[C@@H](O)C[C@@]21C
TherapeuticCategory: glucocorticoid
  maximum recommended daily dose (mmol/kg-bw/day): 0.00684

## Cc1c2oc3c(C)ccc(C(=O)N[C@@H]4C(=O)N[C@H](C(C)C)C(=O)N5CCC[C@H]5C(=O)N(C)CC(=O)N(C)[C@@H](C(C)C)C(=O)O[C@@H]4C)c3nc-2c(C(=O)N[C@@H]2C(=O)N[C@H](C(C)C)C(=O)N3CCC[C@H]3C(=O)N(C)CC(=O)N(C)[C@@H](C(C)C)C(=O)O[C@@H]2C)c(N)c1=O (I: T[dV]P[Sar][NMeV] / II: T[dV]P[Sar][NMeV]; ester I:1-I:C, II:1-II:C; linker I:N-II:N via Actinocin(9to1))
[4]
  maximum recommended daily dose (mmol/kg-bw/day): 1.19e-05

## CC[C@]1(O)CC[C@H]2[C@@H]3CCC4=CCCC[C@@H]4[C@H]3CC[C@@]21C
TherapeuticCategory: anabolic
  maximum recommended daily dose (mmol/kg-bw/day): 0.000231

## NC(=O)c1cnccn1
[2]
  maximum recommended daily dose (mmol/kg-bw/day): 0.244

## CN1[C@@H]2CC(OC(=O)[C@H](CO)c3ccccc3)C[C@H]1[C@@H]1O[C@@H]12 (some centres undefined)
TherapeuticCategory: anticholinergic
  maximum recommended daily dose (mmol/kg-bw/day): 1.09e-06

## CN(C)[C@@H]1C(=O)C(C(N)=O)=C(O)[C@@]2(O)C(=O)C3=C(O)c4c(O)cccc4[C@@](C)(O)[C@H]3C[C@@H]12
TherapeuticCategory: antiamebic, antibacterial, antirickettsial
  maximum recommended daily dose (mmol/kg-bw/day): 0.0749

## CN(C)[C@@H]1C(=O)C(C(=O)NCN2CCCC2)=C(O)[C@@]2(O)C(=O)C3=C(O)c4c(O)cccc4[C@@](C)(O)C3C[C@@H]12 (some centres undefined)
[2]
  maximum recommended daily dose (mmol/kg-bw/day): 0.0111

## C[C@]12CCC(=O)C=C1CC[C@H]1[C@@H]3CC[C@](O)(C(=O)CO)[C@@]3(C)C[C@H](O)[C@@]12F
TherapeuticCategory: mineralcorticoid
  maximum recommended daily dose (mmol/kg-bw/day): 4.39e-06

## COC(=O)c1ccc(O)cc1
TherapeuticCategory: none
  maximum recommended daily dose (mmol/kg-bw/day): 0.0657

## CC(C)NNC(=O)c1ccncc1
TherapeuticCategory: monoamine oxidase inhibitor, antidepressant
  maximum recommended daily dose (mmol/kg-bw/day): 0.0139

## CCC[C@@H]1O[C@@H]2C[C@H]3[C@@H]4CCC5=CC(=O)C=C[C@]5(C)[C@H]4[C@@H](O)C[C@]3(C)[C@]2(C(=O)CO)O1
[1]
  maximum recommended daily dose (mmol/kg-bw/day): 1.01e-05

## COc1cc(N)c(Cl)cc1C(=O)NC1CCN(Cc2ccccc2)CC1
TherapeuticCategory: antiemetic, antispasmodic
  maximum recommended daily dose (mmol/kg-bw/day): 6.69e-05

## S=c1nc[nH]c2nc[nH]c12
[4]
  maximum recommended daily dose (mmol/kg-bw/day): 0.0164

## COc1ccc(Cc2nccc3cc(OC)c(OC)cc23)cc1OC
TherapeuticCategory: smooth muscle relaxant, cerebral vasodilator
  maximum recommended daily dose (mmol/kg-bw/day): 0.0295

## CN1Cc2c(N)cccc2C(c2ccccc2)C1 (centres undefined)
[3]
  maximum recommended daily dose (mmol/kg-bw/day): 0.014

## CN1[C@@H]2CCC[C@H]1CC(NC(=O)c1nn(C)c3ccccc13)C2 (some centres undefined)
TherapeuticCategory: antiemetic
  maximum recommended daily dose (mmol/kg-bw/day): 3.2e-05
